Measurements from article PMC12348509, “Classical Paal-Knorr Cyclization for Synthesis of Pyrrole-Based Aryl Hydrazones and In Vitro/In Vivo Evaluation on Pharmacological Models of Parkinson’s Disease” (Molecules, 2025).

What was measured:
rat brain mitochondria [1] = test: MDA production in brain mitochondria, substances applied alone; assay type: cell-based; details: 100 µM, vs untreated mitochondria
Procedure: To the mitochondria, 0.3 mL of 0.2% thiobarbituric acid and 0.25 mL of sulfuric acid (0.05 M) were added, and the mixture was boiled for 30 min. After boiling, the tubes were placed on ice, and 0.4 mL of n-butanol was added to each tube, which was then centrifuged at 3500× g for 10 min. The amount of MDA was determined spectrophotometrically at 532 nm.

rat brain microsomes [2] = test: MDA production in brain microsomes, substances applied alone; assay type: cell-based; details: 100 µM, vs untreated microsomes
Procedure: The brain was homogenized in nine volumes of 0.1 M Tris buffer containing 0.1 mM dithiothreitol, 0.1 mM phenylmethylsulfonyl fluoride, 0.2 mM EDTA, 1.15% KCl, and 20% (v/v) glycerol (pH 7.4). The resulting homogenate was centrifuged twice at 17,000× g for 30 min. The supernatants from the two centrifugations were pooled and centrifuged twice at 100,000× g for 1 h. The pellet was then frozen in 0.1 M Tris buffer.

rat brain mitochondria [3] = test: GSH level in brain mitochondria, substances applied alone; details: 100 µM, vs untreated mitochondria
[4] = biological target: T1, human recombinant MAOA enzyme (hMAOA) (Homo sapiens, UniProt P21397); test: Human recombinant MAOA enzyme activity (Amplex Red, fluorimetric); assay type: biochemical; details: for IC50: read-out: IC50 (EC50), (µM ± SD) hMAOA
T1 construct: purchased
T1 sequence (P21397 1-527): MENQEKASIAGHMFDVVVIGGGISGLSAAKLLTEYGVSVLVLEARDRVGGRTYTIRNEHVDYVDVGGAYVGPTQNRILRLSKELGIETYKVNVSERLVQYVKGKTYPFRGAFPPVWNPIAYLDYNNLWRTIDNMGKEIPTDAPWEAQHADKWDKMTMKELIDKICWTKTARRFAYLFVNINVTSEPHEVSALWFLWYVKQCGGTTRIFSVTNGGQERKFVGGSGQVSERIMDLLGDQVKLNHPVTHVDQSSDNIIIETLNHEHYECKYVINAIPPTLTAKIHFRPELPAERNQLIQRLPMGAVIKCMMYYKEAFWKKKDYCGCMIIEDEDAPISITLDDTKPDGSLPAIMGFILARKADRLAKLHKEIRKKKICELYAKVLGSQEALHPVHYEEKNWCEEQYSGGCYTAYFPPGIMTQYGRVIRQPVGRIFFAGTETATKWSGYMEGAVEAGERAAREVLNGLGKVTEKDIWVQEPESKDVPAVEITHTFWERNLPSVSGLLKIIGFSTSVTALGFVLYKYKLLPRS
Procedure: (§1) Working solutions of the test substances, reagents, and human recombinant MAOA/B enzyme (hMAOA/B) were prepared in a reaction buffer according to the manufacturer’s instructions. The substances were applied at a final concentration of 1 µM. The substances, together with hMAOA/B, were placed in a 96-well plate (eight samples for each substance), and the plate was placed in an incubator for 30 min (in the dark, at 37 °C). The activity of recombinant human MAOA/B was determined fluorimetrically at two wavelengths (570 nm and 690 nm) with fluorimetric readings performed in a Synergy 2 Microplate Reader. Tyramine hydrochloride was used as the substrate. The activity was determined by detecting H2O2 production. This production is reported by binding to horseradish peroxidase using N-acetyl-3,7-dihydroxyphenoxazine (AmplexRed, Thermo Fisher Scientific, Waltham, MA, USA).

[5] = biological target: T2, human recombinant MAOB enzyme (hMAOB) (Homo sapiens, UniProt P27338); test: Human recombinant MAOB enzyme activity (Amplex Red, fluorimetric); assay type: biochemical; details: for IC50: read-out: IC50 (EC50), (µM ± SD) hMAOB; for inhibition at 1 µM: read-out: hMAOB inhibitory effect (decrease of enzyme activity)
T2 construct: purchased
T2 sequence (P27338 1-520): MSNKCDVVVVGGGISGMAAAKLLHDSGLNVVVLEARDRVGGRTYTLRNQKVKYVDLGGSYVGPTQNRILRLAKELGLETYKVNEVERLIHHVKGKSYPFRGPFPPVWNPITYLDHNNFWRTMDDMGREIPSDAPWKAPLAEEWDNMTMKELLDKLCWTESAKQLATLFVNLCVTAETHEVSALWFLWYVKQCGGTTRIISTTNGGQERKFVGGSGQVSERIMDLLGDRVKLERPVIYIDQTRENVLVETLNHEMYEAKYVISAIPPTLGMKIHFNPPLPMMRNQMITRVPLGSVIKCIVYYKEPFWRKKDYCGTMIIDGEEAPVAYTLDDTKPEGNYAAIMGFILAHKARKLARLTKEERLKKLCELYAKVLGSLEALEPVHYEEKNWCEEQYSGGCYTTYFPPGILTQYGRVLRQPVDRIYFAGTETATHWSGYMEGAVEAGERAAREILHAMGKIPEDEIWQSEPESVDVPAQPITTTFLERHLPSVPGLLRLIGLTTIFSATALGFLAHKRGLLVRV
Procedure: as §1

MAOB = tested on: MAOB; design: method as in PMID 36500572; details: 1 μmol; cited from earlier work
rat brain microsomes [6] = details: 100 µM combined with Fe2+/AA
[7] = tested on: Rotenone-induced model of Parkinsonism in mice; test: Rotenone-induced model of Parkinsonism in mice, brain histopathology (H&E); assay type: in vivo
Procedure: The histological morphology of the mouse brains, mainly the areas of the […] and cerebellum, was examined microscopically.
The samples from mouse brains were fixed in 10% buffered neutral formalin solution. The fixed materials were dehydrated in ascending grades of alcohol: 50°, 60°, 70°, 80°, 90°, 96°, and absolute alcohol. After dehydration, the samples were cleared with xylene and embedded in paraffin blocks. Sections with a thickness of 5 μm were prepared using a rotary microtome. The sections were attached to slides using histological glue, processed with xylene, rehydrated using a descending alcohol row–absolute alcohol, 96°, 90°, 80°, 70°, 60°, and 50°, and finally stained with Hematoxylin-Eosin [57]. Microscopic examination and photography were performed using a Levenhuk D740T light microscope with an integrated camera.

rat brain mitochondria [8] = details: 100 µM combined with t-BuOOH
[9] = 100 µM with 6-OHDA 150 µM, compared to the toxic agent
[10] = 150 µM, vs untreated synaptosomes

With `CCOC(=O)c1cc(-c2ccc(Br)cc2)n(CCCC(=O)O)c1C` [compound 13, 4-(5-(4-Bromophenyl)-3-(ethoxycarbonyl)-2-methyl-1H-pyrrole-1-yl)butanoic acid] as the compound, how does the “increase of MDA production in brain mitochondria vs control” value (rat brain mitochondria [1]) read?
The value was 79%.

And the “increase of MDA production in brain microsomes vs control” value (rat brain microsomes [2])?
Its value is 93%.

What about the “decrease of GSH level in brain mitochondria vs control” value (shortened to “decrease of GSH level … vs control”) (rat brain mitochondria [3]) of the same compound?
Its value is 15%.

For `CCOC(=O)c1cc(-c2ccc(Br)cc2)n(CCCC(=O)N/N=C/c2ccc(N(C)C)cc2)c1C` [15f, (E)-Ethyl 5-(4-bromophenyl)-1-(4-(2-(4-(dimethylamio)benzylidene)hydrazinyl)-4-oxobutyl)-2-methyl-1H-pyrrole-3-carboxylate], which “increase of MDA production in brain mitochondria vs control” value (rat brain mitochondria [1]) is on record?
Its value is 69%.

And the “increase of MDA production in brain microsomes vs control” value (rat brain microsomes [2])?
The value was 67%.

What about the “hMAOA inhibitory effect (decrease of enzyme activity)” value ([4]; 1 µM, vs control (pure hMAOA)) of the same compound?
The value was 40%.

And the IC50 [4]?
Its IC50 is 0.821 µM.

What about the “SI: hMAOB selectivity index = IC50(hMAOA)/IC50(hMAOB)” value [5] of the same compound?
Its value is 1.16.

And the “hMAOB inhibitory effect (decrease of enzyme activity)” value ([5]; 1 µM, vs control (pure hMAOB))?
The value was 45%.

And the IC50 [5]?
Its IC50 is 0.71 µM.

And the “decrease of GSH level … vs control” value (rat brain mitochondria [3])?
The value was 15%.

With `CCOC(=O)c1cc(-c2ccc(Br)cc2)n(CCCC(=O)N/N=C/c2ccccc2F)c1C` [15c, (E)-Ethyl 5-(4-bromophenyl)-1-(4-(2-(2-fluorobenzylidene)hydrazinyl)-4-oxobutyl)-2-methyl-1H-pyrrole-3-carboxylate] as the compound, how does the “increase of MDA production in brain mitochondria vs control” value (rat brain mitochondria [1]) read?
Its value is 110%.

What about the “increase of MDA production in brain microsomes vs control” value (rat brain microsomes [2]) of the same compound?
The value was 132%.

And the “decrease of GSH level … vs control” value (rat brain mitochondria [3])?
The value was 25%.

For `CCOC(=O)c1cc(-c2ccc(Br)cc2)n(CCC(=O)NN)c1C` [compound 12], which MAOB inhibition (MAOB) is on record?
Its MAOB inhibition is 50%.

With `CCOC(=O)c1cc(-c2ccc(Br)cc2)n(CCCC(=O)N/N=C/c2ccccc2O)c1C` [15b, (E)-Ethyl 5-(4-bromophenyl)-1-(4-(2-(2-hydroxybenzylidene)hydrazinyl)-4-oxobutyl)-2-methyl-1H-pyrrole-3-carboxylate] as the compound, how does the “increase of MDA production in brain mitochondria vs control” value (rat brain mitochondria [1]) read?
The value was 99%.

And the “increase of MDA production in brain microsomes vs control” value (rat brain microsomes [2])?
The value was 121%.

What about the “decrease of GSH level … vs control” value (rat brain mitochondria [3]) of the same compound?
The value was 25%.

Which “increase of MDA production in brain mitochondria vs control” value (rat brain mitochondria [1]) does the source give for `CCOC(=O)c1cc(-c2ccc(Br)cc2)n(CCCC(=O)N/N=C/c2ccccc2)c1C` [15a, (E)-Ethyl 1-(4-(2-benzylidenehydrazinyl)-4-oxobutyl)-5-(4-bromophenyl)-2-methyl-1H-pyrrole-3-carboxylate] here?
Its value is 59%.

What about the “increase of MDA production in brain microsomes vs control” value (rat brain microsomes [2]) of the same compound?
Its value is 52%.

What about the IC50 [4] of the same compound?
Its IC50 is > 200 µM.

And the “SI: hMAOB selectivity index = IC50(hMAOA)/IC50(hMAOB)” value [5]?
The value was >289.

What about the inhibition at 1 µM ([5]; 1 µM, vs control (pure hMAOB)) of the same compound?
Its inhibition at 1 µM is 50%.

What about the IC50 [5] of the same compound?
Its IC50 is 0.692 µM.

What about the “decrease of GSH level … vs control” value (rat brain mitochondria [3]) of the same compound?
Its value is 15%.

What about the “antioxidant effect vs Fe2+/AA (MDA production)” value (rat brain microsomes [6]) of the same compound?
Its value is “most prominent effect on MDA production”.

With `CCOC(=O)c1cc(-c2ccc(Br)cc2)n(CCCC(=O)N/N=C/c2cccc(F)c2)c1C` [15d, (E)-Ethyl 5-(4-bromophenyl)-1-(4-(2-(3-fluorobenzylidene)hydrazinyl)-4-oxobutyl)-2-methyl-1H-pyrrole-3-carboxylate] as the compound, how does the “increase of MDA production in brain mitochondria vs control” value (rat brain mitochondria [1]) read?
Its value is 57%.

And the “increase of MDA production in brain microsomes vs control” value (rat brain microsomes [2])?
The value was 63%.

What about the IC50 [4] of the same compound?
The IC50 was > 200 µM.

And the “SI: hMAOB selectivity index = IC50(hMAOA)/IC50(hMAOB)” value [5]?
The value was >471.

What about the inhibition at 1 µM ([5]; 1 µM, vs control (pure hMAOB)) of the same compound?
Its inhibition at 1 µM is 60%.

And the IC50 [5]?
Its IC50 is 0.425 µM.

And the “brain histology, in combination with rotenone” value ([7]; mice treated with rotenone plus 15d, light microscopy)?
Its value is “preserved histoarchitectonics”.

And the “brain histology, treated alone” value ([7]; mouse, in vivo)?
Its value is “no microscopically visible changes”.

And the “decrease of GSH level … vs control” value (rat brain mitochondria [3])?
The value was 10%.

What about the “preservation of GSH level vs 6-OHDA” value (rat brain synaptosomes; [9]) of the same compound?
Its value is 20%.

And the “preservation of synaptosomal viability vs 6-OHDA” value (rat brain synaptosomes; [9])?
Its value is 15%.

And the “neuroprotective effect vs t-BuOOH (GSH level and MDA production)” value (rat brain mitochondria [8])?
The value was “most pronounced neuroprotection”.

Which results are given for `CCOC(=O)c1cc(-c2ccc(Br)cc2)n(CCCC(=O)N/N=C/c2ccc(OC)cc2)c1C` [15e, (E)-Ethyl 5-(4-bromophenyl)-1-(4-(2-(4-methoxybenzylidene)hydrazinyl)-4-oxobutyl)-2-methyl-1H-pyrrole-3-carboxylate]?
increase of MDA production in brain mitochondria vs control (rat brain mitochondria [1]): 119%; increase of MDA production in brain microsomes vs control (rat brain microsomes [2]): 149%; decrease of GSH level in brain mitochondria vs control (rat brain mitochondria [3]): 20%

With `NCCc1cc(O)c(O)cc1O` [6-OHDA, 6-hydroxydopamine, reference compound] as the compound, how does the “decrease of GSH level in synaptosomes by the toxic agent alone” value (rat brain synaptosomes; [10]) read?
Its value is 50%.

What about the “decrease of synaptosomal viability by the toxic agent alone” value (rat brain synaptosomes; [10]) of the same compound?
Its value is 50%.

For `CCOC(=O)c1cc(-c2ccc(Br)cc2)n(CCCC(=O)NN)c1C` [compound 15, Ethyl 5-(4-bromophenyl)-1-(4-hydrazinyl-4-oxobutyl)-2-methyl-1H-pyrrole-3-carboxylate], which “increase of MDA production in brain mitochondria vs control” value (rat brain mitochondria [1]) is on record?
Its value is 73%.

What about the “decrease of GSH level … vs control” value (rat brain mitochondria [3]) of the same compound?
Its value is 25%.

For `C=C(C)[C@H]1Cc2c(ccc3c2O[C@@H]2COc4cc(OC)c(OC)cc4[C@@H]2C3=O)O1` [rotenone, reference compound], which “brain histology, rotenone alone” value ([7]; cerebral cortex of mice treated with rotenone) is on record?
The value was “distinct degenerative-necrotic changes”.

With `CCOC(=O)c1cc(-c2ccc(Br)cc2)n(CCCC(=O)N/N=C/c2cccc(C=O)c2)c1C` [15g, (E)-Ethyl 5-(4-bromophenyl)-1-(4-(2-(3-formylbenzylidene)hydrazinyl)-4-oxobutyl)-2-methyl-1H-pyrrole-3-carboxylate] as the compound, how does the “increase of MDA production in brain mitochondria vs control” value (rat brain mitochondria [1]) read?
Its value is 143%.

What about the “increase of MDA production in brain microsomes vs control” value (rat brain microsomes [2]) of the same compound?
The value was 158%.

And the “decrease of GSH level … vs control” value (rat brain mitochondria [3])?
The value was 20%.

Which MAOB inhibition (MAOB) does the source give for `CCOC(=O)c1cc(-c2ccc(Br)cc2)n(CC(=O)NN)c1C` [compound 11] here?
Its MAOB inhibition is 26%.
